# Results reported in patent US9227935B2, “Piperidine/piperazine derivatives” (Janssen Pharmaceutica N.V., priority 2007, dated 2016).
# Target: T1, human DGAT1 (Homo sapiens, UniProt O75907)
# T1 construct: FLAG (N); made in house; host or cells: SF9 insect cells (baculovirus, pFastBac); total cell membranes used as the enzyme source
# T1 sequence (O75907 1-488): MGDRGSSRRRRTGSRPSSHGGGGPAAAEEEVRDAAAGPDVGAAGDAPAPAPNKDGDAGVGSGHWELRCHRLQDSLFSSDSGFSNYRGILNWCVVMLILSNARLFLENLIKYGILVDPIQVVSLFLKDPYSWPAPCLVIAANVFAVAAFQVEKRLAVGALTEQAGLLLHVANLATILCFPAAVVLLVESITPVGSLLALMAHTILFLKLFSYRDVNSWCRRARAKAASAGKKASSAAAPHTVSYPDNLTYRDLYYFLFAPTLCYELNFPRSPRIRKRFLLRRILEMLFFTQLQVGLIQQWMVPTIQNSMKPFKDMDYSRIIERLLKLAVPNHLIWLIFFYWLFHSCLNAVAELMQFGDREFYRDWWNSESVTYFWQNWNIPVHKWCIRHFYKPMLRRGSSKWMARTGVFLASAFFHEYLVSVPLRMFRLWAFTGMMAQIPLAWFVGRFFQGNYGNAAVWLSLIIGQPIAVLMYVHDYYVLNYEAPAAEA
# Test: DGAT1 FlashPlate inhibition assay with DGAT1 membrane preparations
# Assay type: biochemical
# Details: IC50 values expressed in M; pIC50 = -logIC50; inhibition of DGAT1 activity
# From the text: The inhibiting activity of the present compounds on DGAT1 activity was screened in a single well procedure assay using DGAT1 comprising membrane preparations and DGAT1 substrate comprising micelles and determining formed radio-active triacylglycerol coming in close proximity of a flashplate surface by radioluminescence.
# Said assay is described in full detail in WO2006/067071, the content of which is incorporated herein by reference.
# By DGAT1 activity is meant the transfer of coenzyme A activated fatty acids to the 3-position of 1,2-diacylglycerols, thus forming a triglyceride molecule, by enzyme DGAT1.
# human DGAT1 (NM012079.2) was cloned into the pFastBac vector, containing translation start, a FLAG-tag at the N-terminus as described in literature and a viral Kozak sequence (AAX) preceding the ATG to improve expression in insect cells. Expression was done as described in literature (Cases, S., Smith, S. J., Zheng, Y., Myers H. M., Lear, S. R., Sande, E., Novak, S., Collins, C., Welch, C. B., Lusis, A. J., Erickson, S. K. and Farese, R. V. (1998) Proc. Natl. Acad. Sci. USA 95, 13018-13023.) using SF9 cells.
# 72 h transfected SF9 cells were collected by centrifugation (13000 rpm-15 min-4° C.) and lysed in 2×500 ml lysis buffer (0.1M Sucrose, 50 mM KCl, 40 mM KH2PO4, 30 mM EDTA pH 7.2. Cells were homogenized by cell disruptor. After centrifugation 1380 rpm-15 min-4° C. (SN discarded), pellet was resuspended in 500 ml lysis buffer and total cell membranes collected by ultracentrifugation at 34000 rpm (100 000 g) for 60 min (4° C.). The collected membranes were resuspended in lysis buffer, divided in aliquots and stored with 10% glycerol at −80° C. until use.
# Add 1 ml dioleoyl-sn-glycerol (10 mg/ml) to 10 ml of L-α-phosphatidylcholine (1 mg/ml) and 10 ml of L-α-phosphatidyl-L-serine (1 mg/ml) in a thick glass recipient. Evaporate under nitrogen and put on ice for 15 minutes. Reconstitute in 10 ml Tris/HCl (10 mM, pH 7.4) by sonication on ice. The sonification process consists of sonification cycles of 10 seconds in the sonification bath followed by 10 seconds cool down on ice and repeating this sonification cycle till a homogeneous solution is obtained (takes about 15 minutes). The thus obtained micelles are stored at −20° C. till later use and contain DAG at a final concentration of 1.61 mM.
# • 50 mM Tris-HCl (pH 7.4), 150 mM MgCl2, 1 mM EDTA, 0.2% BSA. b) N-ethylmaleimide, 5M • Dissolve 5 g into a final volume of 8 ml DMSO 100% and store at −20° C. in aliquots till later use. c) Substrate mix (for 1 384 well plate=3840 μl) • 612 μl micelles stock (51 μM final) • 16.6 μl oleoylCoA 9.7 mM • 23 μl [^3H]-oleoylCoA (49 Ci/mmol, 500 μCi/ml) • 3188.4 μl Tris pH 7.4, 10 mM d) Enzyme mix (for 1 384 well plate=3520 μl) (5 μg/ml) • Add 11.73 μl of DGAT membrane stock (1500 μg/ml stock) to 3508 μl assay buffer. e) Stop mix (for 1 384 well plate=7.68 ml) (250 mM) • Add 384 μl of N-ethylmaleimide (5M) to 3.456 ml DMSO 100%, and further dilute 3.84 ml of said solution with 3.84 ml DMSO 10%. Method
# DGAT activity in membrane preparations was assayed in 50 mM Tris-HCl (pH 7.4), 150 mM MgCl2, 1 mM EDTA and 0.2% BSA, containing 50 μM DAG, […] PC/PS and 8.4 μM [^3H]-oleoylCoA (at a specific activity of 30 nCi/well) in a final volume of 50 μl in 384-well format using the red shifted Basic Image FlashPlate™ (Perkin Elmer Cat. No. SMP400).
# In detail, 10 μl enzyme mix and 10 μl substrate mix were added to 30 μl of assay buffer, optionally in the presence of 1 μl DMSO (blank and controls) or 1 μl of the compound to be tested. This reaction mixture was incubated for 120 minutes at 37° C. and the enzymatic reaction stopped by adding 20 μl of the stop mix. The plates were sealed and the vesicles allowed to settle overnight at room temperature. Plates were centrifuged for 5 minutes at 1500 rpm and measured in Leadseeker. […]
row,SMILES,IC50
1,CC(C)(C)OC(=O)N1CC(C(=O)Nc2ccc(C3CCN(C(=O)Nc4c(Cl)cccc4Cl)CC3)cc2)C1 [Compound 1],8.13 nM
2,Cc1nc(C(=O)Nc2ccc(N3CCN(C(=O)Nc4c(Cl)cccc4Cl)CC3)cc2)c(-c2ccc(C(C)C)cc2)s1 [Compound 2],112 nM
3,Cc1nc(C(=O)Nc2ccc(C3CCN(C(=O)Nc4c(Cl)cccc4Cl)CC3)cc2)c(-c2ccc(C(C)C)cc2)s1 [Compound 3],1170 nM
4,O=C(Nc1ccc(N2CCN(C(=O)Nc3c(Cl)cccc3Cl)CC2)cc1)c1ccccc1-c1ccco1 [Compound 4],24.5 nM
5,O=C(Nc1ccc(N2CCN(C(=O)NCC3CCCCC3)CC2)cc1)c1ccccc1-c1ccc(C(F)(F)F)cc1 [Compound 5],7590 nM
6,O=C(Nc1ccc(N2CCN(C(=O)c3c(Cl)cccc3Cl)CC2)cc1)c1ccccc1-c1ccc(C(F)(F)F)cc1 [Compound 6],9120 nM
7,Cc1ccccc1NC(=O)N1CCC(c2ccc(NC(=O)c3ccccc3-c3ccc(C(F)(F)F)cc3)cc2)CC1 [Compound 7],3470 nM
8,Nc1ccccc1C(=O)Nc1ccc(C2CCN(C(=O)Nc3c(Cl)cccc3Cl)CC2)cc1 [Compound 10],324 nM
9,CN1CC(C(=O)Nc2ccc(N3CCN(C(=O)Nc4c(Cl)cccc4Cl)CC3)cc2)CC1=O (stereo not shown) [Compound 11],1120 nM
10,O=C(Nc1ccc(N2CCN(C(=O)Nc3c(Cl)cccc3Cl)CC2)cc1)c1cccc(N2CCCC2)c1 [Compound 12],1.35 nM
11,O=C(Nc1ccc(N2CCN(C(=O)Nc3c(Cl)cccc3Cl)CC2)cc1)c1cccc(N2CCCC2=O)c1 [Compound 13],11 nM
12,O=C(Nc1ccc(N2CCN(C(=O)Nc3c(Cl)cccc3Cl)CC2)cc1)c1cccc(-c2ccco2)c1 [Compound 14],0.977 nM
13,O=C(Nc1ccc(N2CCN(C(=O)Nc3c(Cl)cccc3Cl)CC2)cc1)c1ccc(-c2cnco2)cc1 [Compound 15],12.9 nM
14,O=C(Nc1ccc(N2CCN(C(=O)Nc3c(Cl)cccc3Cl)CC2)cc1)c1cccc(-c2cnco2)c1 [Compound 16],12 nM
15,Cc1nc(-c2cccc(C(=O)Nc3ccc(N4CCN(C(=O)Nc5c(Cl)cccc5Cl)CC4)cc3)c2)cs1 [Compound 17],2.09 nM
16,CCc1nc(C)c(-c2ccccc2C(=O)Nc2ccc(N3CCN(C(=O)Nc4c(Cl)cccc4Cl)CC3)cc2)s1 [Compound 18],40.7 nM
17,Cc1ccc(C)n1-c1ccc(C(=O)Nc2ccc(N3CCN(C(=O)Nc4c(Cl)cccc4Cl)CC3)cc2)cc1 [Compound 19],145 nM
18,Cc1ccc(C)n1-c1cccc(C(=O)Nc2ccc(N3CCN(C(=O)Nc4c(Cl)cccc4Cl)CC3)cc2)c1 [Compound 20],30.9 nM
19,O=C(Nc1ccc(N2CCN(C(=O)Nc3c(Cl)cccc3Cl)CC2)cc1)c1ccc(-n2cccn2)cc1 [Compound 21],8.91 nM
20,O=C(Nc1ccc(N2CCN(C(=O)Nc3c(Cl)cccc3Cl)CC2)cc1)c1ccccc1-n1ccnc1 [Compound 22],1380 nM
21,O=C(Nc1ccc(N2CCN(C(=O)Nc3c(Cl)cccc3Cl)CC2)cc1)c1cccc(-n2ccnc2)c1 [Compound 23],33.1 nM
22,O=C(Nc1ccc(N2CCN(C(=O)Nc3c(Cl)cccc3Cl)CC2)cc1)c1ccc(-n2ccnc2)cc1 [Compound 24],347 nM

row,SMILES,IC50
1,O=C(Nc1ccc(N2CCN(C(=O)Nc3c(Cl)cccc3Cl)CC2)cc1)c1ccc(-c2cc[nH]n2)cc1 [Compound 25],70.8 nM
2,Cc1n[nH]c(C)c1-c1ccccc1C(=O)Nc1ccc(N2CCN(C(=O)Nc3c(Cl)cccc3Cl)CC2)cc1 [Compound 26],398 nM
3,Cc1cc(C)n(-c2ccc(C(=O)Nc3ccc(N4CCN(C(=O)Nc5c(Cl)cccc5Cl)CC4)cc3)cc2)n1 [Compound 27],3.89 nM
4,Cc1cc(C)n(-c2cccc(C(=O)Nc3ccc(N4CCN(C(=O)Nc5c(Cl)cccc5Cl)CC4)cc3)c2)n1 [Compound 28],5.01 nM
5,O=C(Nc1ccc(N2CCN(C(=O)Nc3c(Cl)cccc3Cl)CC2)cc1)c1ccc(-n2cnnc2)cc1 [Compound 29],776 nM
6,Cc1nc(-c2ccc(C(=O)Nc3ccc(N4CCN(C(=O)Nc5c(Cl)cccc5Cl)CC4)cc3)cc2)no1 [Compound 30],4.47 nM
7,Cc1nnnn1-c1cccc(C(=O)Nc2ccc(N3CCN(C(=O)Nc4c(Cl)cccc4Cl)CC3)cc2)c1 [Compound 31],269 nM
8,O=C(Nc1ccc(N2CCN(C(=O)Nc3c(Cl)cccc3Cl)CC2)cc1)c1ccccc1-c1nnn[nH]1 [Compound 32],3310 nM
9,O=C(Nc1ccc(N2CCN(C(=O)Nc3c(Cl)cccc3Cl)CC2)cc1)c1ccc(-c2nnn[nH]2)cc1 [Compound 33],1950 nM
10,O=C(Nc1ccc(N2CCN(C(=O)Nc3c(Cl)cccc3Cl)CC2)cc1)c1ccccc1-c1ccccc1 [Compound 34],20.4 nM
11,CC(C)(C)c1ccc(-c2ccccc2C(=O)Nc2ccc(N3CCN(C(=O)Nc4c(Cl)cccc4Cl)CC3)cc2)cc1 [Compound 35],117 nM
12,Cc1ccccc1-c1cccc(C(=O)Nc2ccc(N3CCN(C(=O)Nc4c(Cl)cccc4Cl)CC3)cc2)c1 [Compound 36],1.74 nM
13,O=C(Nc1ccc(N2CCN(C(=O)Nc3c(Cl)cccc3Cl)CC2)cc1)c1cccc(N2CCCCC2)c1 [Compound 37],1.74 nM
14,O=C(Nc1ccc(N2CCN(C(=O)Nc3c(Cl)cccc3Cl)CC2)cc1)c1ccc(N2CCOCC2)cc1 [Compound 38],11 nM
15,O=C(Nc1ccc(N2CCN(C(=O)Nc3c(Cl)cccc3Cl)CC2)cc1)c1ccccc1N1CCOCC1 [Compound 39],380 nM
16,O=C(Nc1ccc(N2CCN(C(=O)Nc3c(Cl)cccc3Cl)CC2)cc1)c1cccc(N2CCOCC2)c1 [Compound 40],6.61 nM
17,O=C(Nc1ccc(N2CCN(C(=O)Nc3c(Cl)cccc3Cl)CC2)cc1)c1cccc(N2CCCCS2(=O)=O)c1 [Compound 41],19.1 nM
18,O=C(Nc1ccc(N2CCN(C(=O)Nc3c(Cl)cccc3Cl)CC2)cc1)c1ccccc1N1CCS(=O)(=O)CC1 [Compound 42],1170 nM
19,O=C(Nc1ccc(N2CCN(C(=O)Nc3c(Cl)cccc3Cl)CC2)cc1)c1cccc(N2CCS(=O)(=O)CC2)c1 [Compound 43],437 nM
20,CN1CCN(c2ccc(C(=O)Nc3ccc(N4CCN(C(=O)Nc5c(Cl)cccc5Cl)CC4)cc3)cc2)CC1 [Compound 44],100 nM
21,O=C(Nc1ccc(N2CCN(C(=O)Nc3c(Cl)cccc3Cl)CC2)cc1)c1ccccc1-c1nc2ccccc2[nH]1 [Compound 45],56.2 nM
